Molecules are shown by their SMILES. Several values for one entry are separate records, joined by “and”; a condition that tells them apart may be missing. Identical values can stand only once. Like-named read-outs stand apart in the source and are kept apart here.

As usually defined, the EC50 is the concentration needed to bring the measured effect to its halfway point.

One test has as its system TNFα gene. As to the kind of experiment: LPS-induced TNFα gene expression in BV2 cells, qRT-PCR. The note with it: for EC50: Mus musculus, BV-2; for Relative TNFα expression (% of control): Fig. S6, LPS. The test is classed as cell-based, mouse. Here is the method:
SK-N-BE(2)C human neuroblastoma, BV2 mouse microglia (ATCC), HeLa and MN9D cell lines were cultured in Dulbecco’s Modified Eagle Medium (DMEM) supplemented with 10% fetal bovine serum (FBS) and 100 U /ml penicillin and 100 μg /ml streptomycin. The murine MN9D dopaminergic cell line was kindly provided by Drs. Michael Zigmond and Juliann Jaumotte from the University of Pittsburgh. The N27-A rat dopaminergic cell line was kindly provided by Dr. Curt Freed from the University of Colorado School of Medicine. […] For transactivity assay, SK-N-BE(2)C and N27-A cell lines were transfected with pCMV-fNurr1, pGAL-Nurr1(LBD), pGAL-Nor1(LBD) or pGAL-Nur77(LBD) and reporter construct (p4xNL3-Luc for fNurr1 or p8xUAS-Luc for LBD constructs). pRSV-β-gal was co-transfected as an internal control. Cells were lysed in a lysis buffer (25 mM Tris-phosphate (pH 7.8), 2 mM DTT, 2 mM DCTA (1,2-diaminocyclohexane-N,N,N′,N′-tetraacetic acid), 10% glycerol, and 1% Triton X-100) 24 h after transfection, followed by adding firefly luciferase substrate for luminescence detection measured by a luminometer plate reader (SpectraMax®; Molecular device). Nurr1 transactivity was normalized to β-galactosidase activity. […] For Nurr1 stability determination, MN9D cells were incubated with MPP^+ (0.5 mM) for 2, 4, 8, 16, 24, and 32 h, or were transduced with lentivirus expressing GFP only or αSyn (wild-type or A53T) then harvested 24, 48 and 72 h after transduction. For autophagolysosome (APL) formation assay, HeLa and N27-A cells were transfected with mRFP-GFP-LC3 (Addgene) using Lipofectamine 2000 (Invitrogen). The medium was changed with starvation medium (Earle’s Balanced Salt Solution; EBSS) 24 h after transfection for autophagy induction.
Total RNA was extracted using the GeneJET RNA Purification Kit (Thermo Fisher Scientific) and 100 ng of RNA was subjected to cDNA synthesis using Invitrogen Superscript cDNA Synthesis Kit (Invitrogen) according to the manufacturer’s protocol. qRT-PCR was performed using a CFX Connect Real-Time System (Bio-Rad) in a 20 μl volume mixture containing 2X SsoAdvanced Universal SYBR Green Supermix (Bio-Rad), 100 ng/μl of forward and reverse primers, and 1 μl of cDNA sample. Gene expression levels were quantified by the 2^∆∆CT method (Ct of target gene—Ct of glyceraldehyde-3-phosphate dehydrogenase (GAPDH). The following primers were used for qRT-PCR: TH forward: 5′-[…]-3′, reverse: 5′-[…]-3′; DAT forward: 5′-[…]-3′, reverse: 5′-[…]-3′; AADC forward: 5′-[…]-3′, reverse: 5′-[…]-3′; VMAT2 forward: 5′-[…]-3′, reverse: 5′-[…]-3′; c-Ret forward: 5′-[…]-3′, reverse: 5′-[…]-3′; TNFα forward: 5′-[…]-3′; reverse: 5′-[…]-3′; GAPDH, forward 5′-[…]-3′, reverse 5′-[…]-3′.
Background: Quantitative PCR measures a nucleic acid by following its amplification.

For the next test, the system named is Iba-1+ microglia. As to the kind of experiment: Primary rat VM neuron-glia co-culture, Iba-1+ microglia (ICC). The test is classed as cell-based. The note with it: for Iba-1+ cells (% of control): Fig. 2g. Here is the method: Primary rat VM neuron-glia co-culture was prepared from E14 rat embryos (Fisher 344; Charles River)[33]. […] After blocking with 10% normal donkey serum (NDS) and 0.1% Triton X-100 solution for 1 h at room temperature, cells were incubated with primary antibodies against TH (1:1,000; Pel Freez, P40401) and Iba-1 (1:500; Abcam, ab5076) in 1% NDS and 0.1% Triton X-100 solution for overnight at 4 °C. Alexa Fluor 568- or Alexa Fluor 488-conjugated anti-rabbit or anti-goat secondary antibodies (1:500; Invitrogen) were incubated following the primary antibody incubation, and then cover glasses were mounted using FluoShield^TM mounting media (Sigma-Aldrich). Fluorescence images were taken using a KEYENCE microscope (BZ-X800; KEYENCE).

A further test has as its system MPTP-induced male mice. As to the kind of experiment: IHC/stereology of TH+ fibers, TH+ DA neurons and NeuN+ neurons, MPTP-induced mice. It counts as in vivo, mouse. As for the experimental part:
MPTP (Sigma-Aldrich) was intraperitoneally (i.p.) injected (30 mg/kg) for 5 days (Day 1-5). […] To test dyskinetic involuntary behavior, an L-DOPA injected group was included, which received 50 mg/kg of L-DOPA and 15 mg/kg of benserazide (Sigma-Aldrich) (i.p.) for 16 days (Day 1–16). All compounds were administered 6 h post-MPTP injection to avoid any effect of compounds on the MPTP metabolism in the brain. Motor and non-motor related behavior tests were performed on the following days as described in Fig. 4a in an assessor- and observer-blinded fashion. Pre-training and baseline setup for motor-related behaviors were performed 3 days prior to the injections. Mice were sacrificed and subjected to immunohistochemistry. Mice were housed at the Animal Care Facilities of McLean Hospital under a 12-h light/12-h dark cycle, ambient temperature and humidity. Animals were handled in accordance with McLean Hospital’s Institutional Animal Care and Use Committee (Protocol #: 2015N000002) and followed National Institutes of Health guidelines.
Images were acquired using a KEYENCE microscope and quantified as the number or optical density of immunoreactive cells using ImageJ software.
The numbers of TH^+ DA neurons, NeuN^+ neurons, pS129 αSyn^+ cells in the SN and Iba-1^+ microglia in the SN and striatum were stereologically counted in six coronal sections (30 µm thickness) taken every 6th section (180 µm intervals) for each brain. The boundaries of the SN and striatum were delimited at low magnification (4X) to estimate each total area. Immunoreactive cells were counted with images taken at high magnification (×40) by a single blinded investigator. The group mean of the total number of immunoreactive cells from each brain was transformed as percentage of the number in the control group (%). For AAV-αSyn-induced mice, the group mean of the total number of cells in the ipsilateral side was transformed as a percentage of that observed in the contralateral side.

`CCN(CC)CCCC(C)Nc1ccnc2cc(Cl)ccc12` (centres unmarked) [CQ, chloroquine] yielded an EC50 in the test on TNFα gene of around 100 nM.
Turning to `CCN1CCN(c2cc(N3CCN(CC)CC3)nc(NCCNc3ccnc4cc(Cl)ccc34)n2)CC1` [4A7C-301, N^1-(4,6-bis(4-ethylpiperazin-1-yl)pyrimidin-2-yl)-N^2-(7-chloroquinolin-4-yl)ethane-1,2-diamine], the “Iba-1+ cells (% of control)” value in the test with Iba-1+ microglia (4A7C-301 only, 50 nM, 0.05 µM) is 77.52 % of control and 86.67 % of control and 96.15 % of control; in the test with Iba-1+ microglia (4A7C-301 only, 500 nM, 0.5 µM), 69.77 % of control and 67.62 % of control and 86.92 % of control; with Iba-1+ microglia (+ LPS, 5 nM, 0.005 µM), 240.31 % of control and 188.57 % of control and 210 % of control; in the test with Iba-1+ microglia (+ LPS, 50 nM, 0.05 µM), 160.47 % of control and 128.57 % of control and 139.23 % of control; in the test on Iba-1+ microglia (+ LPS, 500 nM, 0.5 µM), 102.4 % of control and 80.95 % of control and 100.31 % of control; with Iba-1+ microglia (+ LPS, 1000 nM, 1 µM), 86.82 % of control and 87.62 % of control and 103.69 % of control. Further, the “Iba-1+ cells (% of control)” value is 114.73 % of control and 125.71 % of control and 144.62 % of control in the test with Iba-1+ microglia (+ MPP+, 5 nM, 0.005 µM); 96.12 % of control and 105.71 % of control and 78.46 % of control in the test with Iba-1+ microglia (+ MPP+, 50 nM, 0.05 µM); 64.34 % of control and 63.81 % of control and 42.31 % of control in the test with Iba-1+ microglia (+ MPP+, 500 nM, 0.5 µM); 42.64 % of control and 72.38 % of control and 48.46 % of control with Iba-1+ microglia (+ MPP+, 1000 nM, 1 µM). Further, the “concentration of optimal suppression of microglial activation” value with Iba-1+ microglia (against LPS) worked out at 500 nM. Further, the “concentration of optimal suppression, times lower than CQ” value in the test with Iba-1+ microglia (against LPS) came to 40 times. The “Relative TNFα expression (% of control)” value with TNFα gene (Conc. 0.0001 µM) was 72.3049 % of control and 70.453 % of control and 74.7916 % of control; in the test with TNFα gene (Conc. 0.001 µM), 45.7586 % of control and 44.0429 % of control and 42.816 % of control; in the test with TNFα gene (Conc. 0.01 µM) it was 26.6218 % of control and 26.6304 % of control and 26.1645 % of control; in the test with TNFα gene (Conc. 0.1 µM) it was 25.1791 % of control and 23.3247 % of control and 22.8855 % of control; with TNFα gene (Conc. 1 µM), 21.147 % of control and 21.3464 % of control and 19.5073 % of control. For the same compound, the EC50 with TNFα gene (suppression of LPS-induced TNFα gene, BV2 cells, read-out: EC50) was around 1 nM. Besides, the “TH+ neurons in SNpc (% of control)” value in the test with MPTP-induced male mice (Figure 4j, MPTP-induced mice, individual animal values) was 63.18 % of control and 108.74 % of control and 134.92 % of control and 132.65 % of control and 112.51 % of control and 66.45 % of control and 53.87 % of control. Further, the “NeuN+ neurons in SNpc (% of control)” value in the test on MPTP-induced male mice (Figure 4k, MPTP-induced mice, individual animal values) was 85.48 % of control and 97.85 % of control and 98.38 % of control and 115.18 % of control. For the same compound, the “TH fiber density in STR (% of control)” value in the test on MPTP-induced male mice (Figure 4h, MPTP-induced mice, individual animal values) was 116.18 % of control and 48.63 % of control and 93.47 % of control and 82.29 % of control and 106.49 % of control and 100.23 % of control and 91.26 % of control. Also, the “TH+ fibers in STR, TH+ DA neurons and NeuN+ neurons in SN (in words)” value in the test with MPTP-induced male mice (compared to MPTP only group) was “significantly retained”.
